From patent publication US20260207769A1, “ANTIBODY DRUG CONJUGATES” (YALE UNIVERSITY, priority 2022, published 2026)

Assays:
[1] = system: DNA damage response proteins; test: Western blot of DNA damage response proteins in PEO-4 cells; assay type: cell-based; conditions: 100 nM, 24 and 48 hours
Protocol: PEO-4 (WT) and PEO-1 (BRCA2^−/−) ovarian cancer cells were treated with 100 nM of SN38, cD31N or cD31N-SN38 and collected at 24 and 48 hours of treatment for Western blot analysis to measure specific protein markers of DNA damage response as previously described.

[2] = system: BRCA2^−/− DLD-1 colorectal adenocarcinoma cells; test: Cell viability assay in BRCA2-/- DLD-1 cells; assay type: cell-based, human; conditions: BRCA^−/− DLD-1 cells
Description: (§1) Cancer cell lines were acquired from ATCC and cultured according to well known methods in the art. Treatment with cytotoxic agents, antibodies, or ADCs refers to the addition of the cytotoxic agent, antibody or ADC (i.e., DM1 or cD31N-DM1, etc.) to the culture media for a set duration.
(§2) BRCA2 deficient (BRCA2′) cells are more sensitive to DM1 because BRCA2 participates in DNA double-stranded break (DSB) repair.

[3] = system: DNA damage response proteins such as γH2AX, p-ATM, and p-ATR; test: Western blot of DNA damage response proteins in IDH1mut HCT116 cells; assay type: cell-based; conditions: IDH1mut HCT116, 100 nM, 24 hours
Protocol: (§3) DNA damage induced by SN38 or the humanized 3E10-SN38 conjugates in WT and IDH1^mut HCT116 cells was assessed by measuring the levels of proteins involved in DNA damage response, p-ATM, p-ATR, pChk2, pChk1, 7H2AX and H2AX. HCT116 cells were treated with 100 nM of SN38, V66 antibody, or V66-SN38 conjugate and collected for Western blot after 24 hours and the results are shown in FIG. 26. No treatment (NT) was used as control.

[4] = system: DNA damage response proteins such as γH2AX, p-ATM, and p-ATR; test: Western blot of DNA damage response proteins in WT HCT116 cells; assay type: cell-based; conditions: WT HCT116, 100 nM, 24 hours
Protocol: as §3

[5] = system: LoVo colorectal cancer cells; test: Cell viability of LoVo cells after 7 days of treatment; assay type: cell-based
Protocol: LoVo colorectal cancer cells were treated with SN38, cD31N antibodies, V66 3E10 antibodies, and conjugates of the present disclosure. […] The EC50 values were calculated and are set forth below in Table 3.

WT DLD-1 cells = test: Clonogenic assay in WT DLD-1 cells; assay type: cell-based, human; conditions: WT DLD-1, after 7 days
Protocol: (§4) Clonogenic or colony formation assays are in vitro assays that can measure the survival or growth of cells on a single-cell level based on the ability of a single cell to grow into a colony. WT or BRCA2^−/− DLD-1 cells were plated with different concentrations of SN38, 3E10 antibody, or 3E10-SN38 conjugate added into the clonogenic assay media. After 7 days for WT cells or 10 days for BRCA2^−/− cells, colony numbers were counted to quantify DLD-1 cell survival. […] Consistent with earlier results, DLD-1 cell survival was concentration-dependent.

BRCA2^−/− DLD-1 cells = test: Clonogenic assay in BRCA2-/- DLD-1 cells; assay type: cell-based, human; conditions: BRCA2-/- DLD-1, after 10 days
Protocol: as §4

[6] = system: DNA damage response proteins; test: Western blot of DNA damage response proteins in SKOV3 cells; assay type: cell-based; conditions: 100 nM, 24, 48 and 72 hours
Protocol: SKOV3 ovarian cancer cells were treated with 100 nM of SN38, cD31N antibody, or cD31N-SN38 as indicated and collected at 24, 48, and 72 hours of treatment for Western blot analysis to measure specific protein markers of DNA damage response as previously described. […] In particular, 7H2AX levels increased over time.

[7] = system: PEO-1 (BRCA2^−/−) ovarian adenocarcinoma cells; test: Cell viability of PEO-1 cells; assay type: cell-based; conditions: PEO-1 (BRCA2-/-) cells, at 7 days
Description: as §1
The effects of longer-term treatment with SN38 and cD31N-SN38 on PEO-4 (WT) and PEO-1 (BRCA2^−/−) ovarian cancer cells were investigated.

DLD-1 cells = test: treatment duration, single dose of SN38 or 3E10-SN38 conjugates, cancer cell growth (Example 7); assay type: cell-based; conditions: effects dose dependent
Description: FIGS. 14, 15, and 16 show the cell viability of WT and BRCA2^−/− DLD-1 cells after treatment with SN38, cWT-SN38 or cD31N-SN38 at 3, 5, and 7 days post-treatment, respectively.
FIGS. 14A, 15A, and 16A show the viability of WT DLD-1 cells and FIGS. 14B, 15B, and 16B show the viability of BRCA2^−/−- DLD-1 cells. The calculated EC50 values are provided.
FIGS. 17 and 18 show the effects of shorter and longer term treatment on cell viability in WT DLD-1 cells (FIGS. 17A and 17B) and BRCA2^−/−- DLD-1 cells (FIGS. 18A and 18B) at day 7 after treatment with SN38 or cD31N-SN38 conjugate. Shorter term treatment was defined as a 24 hour treatment followed by a change to fresh treatment-free media. Longer term treatment was defined as 7 days of treatment without a change of medium. The calculated EC50 values are provided.

[8] = system: WT DLD-1 colorectal adenocarcinoma cells; test: Cell viability assay in WT DLD-1 cells; assay type: cell-based, human
Description: as §1, §2
The viability assay protocol is set forth in Example 3.

Question: `CCc1c2c(nc3ccc(O)cc13)-c1cc3c(c(=O)n1C2)COC(=O)[C@]3(O)CC` [SN38, SN-38] was tested. Which “protein expression of DNA damage response proteins” value [1] did it give?
Answer: protein expression of DNA damage response proteins was increased

Question: What about the EC50 [2] of the same molecule?
Answer: 0.65 nM

Question: What about the “protein levels of DNA damage response proteins” value [3] of the same molecule?
Answer: increased the protein levels of DNA damage response proteins such as γH2AX, p-ATM, and p-ATR

Question: What about the “protein levels of DNA damage response proteins” value [4] of the same molecule?
Answer: increased the protein levels of DNA damage response proteins such as γH2AX, p-ATM, and p-ATR

Question: And the EC50 [5]?
Answer: 5.8 nM

Question: What about the cell viability [5] of the same molecule?
Answer: strongest effect on cell viability

Question: What about the “cell survival (colony numbers)” value (WT DLD-1 cells) of the same molecule?
Answer: reduced cell survival

Question: And the “cell survival (colony numbers)” value (BRCA2^−/− DLD-1 cells)?
Answer: reduced cell survival

Question: What about the “protein expression of DNA damage response proteins” value [6] of the same molecule?
Answer: protein expression of DNA damage response proteins was increased

Question: And the cell viability [7]?
Answer: reduced cell viability in a concentration-dependent manner resulting in low EC50 values

Question: And the “long-term effects on cancer cell growth” value (DLD-1 cells)?
Answer: can have long-term effects on cancer cell growth

Question: What about the EC50 [8] of the same molecule?
Answer: 6.26 nM
